# Results from PubChem BioAssay AID1508612.
# Assay: passive permeability, PAMPA, ADME assay (AID 1508612)
# Conditions: pH 7.4, 30.0 min, 50.0 µM
row,Papp [×10⁻⁶ cm/s],SMILES
1,20.8,Cc1cc(-c2nnc3n2CCCCC3)c(C)n1-c1ccc([N+](=O)[O-])cc1
2,566,NC(=O)C1CCN(c2nc(-c3cccc(C(F)(F)F)c3)cs2)CC1
3,> 1000,COc1cccc(-n2ncc3c2CCCC3NC(=O)c2ccccn2)c1 (stereo not given)
4,586,COc1cccc(CNc2ccc(S(=O)(=O)Nc3ccccn3)cc2)c1O
5,707,Cc1cc(C)nc(NC(=S)N2CCN(c3ccc4nsnc4c3)CC2)c1
6,3.5,COc1cccc(C(=O)Nc2ccc([S+](=O)([O-])Nc3nccs3)cc2)c1O
7,931,O=C(/C=C/c1cn(CC(O)CN2CCCCCC2)c2ccccc12)c1ccc(Br)cc1 (stereo not given)
8,7.7,COc1ccc(-c2csc(NC(=O)c3ccccc3NS(=O)(=O)c3ccc(C)cc3)n2)cc1
9,178,CC(=O)c1c(C)[nH]c(C(=O)Nc2cccc([S+](=O)([O-])Nc3ccc(C#N)cc3)c2)c1C
10,530,COc1cc(-c2nc(-c3ccccc3)c(-c3cccs3)[nH]2)cc(OC)c1O
11,351,COc1ccc2[nH]c(=O)c(-c3noc(-c4cccs4)n3)cc2c1
12,169,O=C1CCCC2=C1C(c1[nH]ncc1Cl)N=C(Nc1nc3cc([S+](=O)([O-])N4CCOCC4)ccc3o1)N2 (stereo not given)
13,603,COc1cccc(NS(=O)(=O)c2ccc(NCc3cccc(OC)c3O)cc2)c1
14,< 1,COc1ccc(-c2cc(-c3cccc4[nH]ncc34)cn3cncc23)cn1
15,896,COC(=O)c1ccccc1C(=O)Nc1nc(-c2ccccc2)cs1
16,116,Fc1cc(-c2nc(Nc3ccc(F)c(F)c3)c3ccccc3n2)ccn1
17,270,COc1ccc(-c2csc(N3CCC(C(N)=O)CC3)n2)cc1OC
18,1.5,Cc1noc(C)c1-c1ccc2ncnc(N3CCC(C(=O)O)CC3)c2c1
19,3.1,Nc1c(-c2ccncc2)cc[nH]c1=O
20,37.9,CC(=O)Nc1ncc(S(=O)(=O)N2CCOCC2)s1
21,< 1,Nc1ccc(CNc2ccc([S+](=O)([O-])Nc3nccs3)cc2)c(O)c1
22,835,Cc1ccnc(NC(=S)N2CCC(Nc3cccc(C(F)(F)F)c3)CC2)c1
23,6.07,Nc1nc(Nc2ccc(S(N)(=O)=O)cc2)n(C(=S)Nc2c(F)cccc2F)n1
24,202,COc1cccc(-c2noc(Nc3ccc4c(c3)OCCO4)n2)c1
25,< 1,O=C(O)c1cnc(-c2ccc(F)cc2)nc1-c1ccncc1
26,26.4,Cc1ccc(CNc2ccccc2C(=O)Nc2nc(-c3ccccc3)cs2)cc1

row,Papp [×10⁻⁶ cm/s],SMILES
1,< 1,Cc1sc2c(c1C)C(c1ccc(Cl)cc1)=N[C@H](CC(=O)NCCCCNC(=O)COc1cccc3c1C(=O)N([C@H]1CCC(=O)NC1=O)C3=O)c1nnc(C)n1-2
2,40.6,COc1ccc(CNC(=O)Cn2nc3c(cc2=O)CCCC3)cc1
3,540,COc1ccc(-n2nc(C3CCN(C(=O)Cc4ccc(F)cc4)CC3)[nH]c2=O)cc1
4,407,O=S(=O)(c1ccc(Cl)cc1)c1ccccn1
5,> 1000,CCOC(=O)c1ccc2c(c1)c(C(C)=O)c(C)n2-c1ccc(OC)cc1
6,714,NC(=O)C1CCN(c2ncc(-c3ccc(Cl)cc3)s2)CC1
7,> 1000,CN1CCN(CCCN2c3ccccc3Sc3ccc(S(=O)(=O)N(C)C)cc32)CC1
8,344,O=C(Nc1ncccc1O)c1ccc(S(=O)(=O)Nc2ccccc2)cc1
9,> 1000,Cc1cnc(-c2ccccc2C(C)C)nc1NCC1CCN(c2cccnc2)C1 (stereo not given)
10,> 1000,O=C(CCCc1ccc2cccnc2n1)NCc1cc(-c2ccc(F)c(C(F)(F)F)c2)no1
11,606,O=C1Nc2ccccc2/C1=C/c1ccc[nH]1
12,104,NC(=O)C1CCN(c2nc(-c3ccc(OC(F)(F)F)cc3)cs2)CC1
13,512,Cc1cccc(-c2[nH]c(C(C)(C)C)nc2-c2ccc3nccnc3c2)n1
14,61.8,N#Cc1ccccc1S(=O)(=O)Nc1cnccc1C(=O)Nc1nc(-c2ccccc2)cs1
15,969,CC(C)(C)c1ccc(-n2cnc3cc(C(=O)N4CCCCC4)ccc32)cc1
16,89,CCOC(=O)[C@H]1O[C@H]1C(=O)N[C@@H](CC(C)C)C(=O)NCCC(C)C
17,930,c1ccc(Nc2nc(NCc3ccco3)c3ccccc3n2)cc1
18,6.08,COc1cc2c(cc1OCCCN1CCCC1)N=C(N)C21CCC1
19,7,O=C(Cc1ccc(Cl)cc1)Nc1cnccc1C(=O)O
20,139,O=C(Nc1ccc(C(=O)N2CCCC2)cc1)c1ccccc1F
21,613,CCOC(=O)N1CCN(Cc2nc3cc(NC(=O)CC(C)C)ccc3n2C(C)C)CC1
22,216,COc1ccc(OC)c(-n2c3c(cc(-c4nc(-c5ccc(Cl)cc5)cs4)c2=O)C(=O)CC(C)(C)C3)c1
23,115,Cc1c(Cl)cccc1NC(=O)CNS(=O)(=O)c1cccs1
24,> 1000,COc1cc2c(c(OC)c1OC)-c1ccc(SC)c(=O)cc1C(N)CC2 (stereo not given)
25,743,O=C(c1ccccc1)N1CCN(c2nc(-c3ccc(Br)cc3)cs2)CC1
26,944,Clc1ccccc1-c1nc(NCc2ccc(-c3cccnc3)cc2)c2ccccc2n1

row,Papp [×10⁻⁶ cm/s],SMILES
1,113,CCOC(=O)c1ccc(NC(=O)N2Cc3[nH]cnc3C[C@H]2c2nc(C(C)C)no2)cc1
2,211,CCOc1ccc(Nc2nc(C)c(NC(=O)c3ccc(C)cc3)c(Nc3ccc(OCC)cc3)n2)cc1
3,294,O=C1CCCC2=C1C1(CCCC1)N=C(Nc1nc3ccccc3o1)N2
4,5.16,Cc1cc(Cl)ccc1COc1ccnn1-c1cc(C(=O)O)ccn1
5,4.65,CCc1ccc(C2N=C(N)Nc3nc4ccccc4n32)cc1 (stereo not given)
6,> 1000,O=C(Nc1ccc2c(N3CCOCC3)ncnc2c1)c1cccc(Br)c1
7,8.31,NC1(c2ccc(NC(=O)c3ccnc(-c4cc(C(=O)O)ccn4)c3)cc2)CC1
8,89.4,CCCc1nnc(NC(=O)c2nc(S(=O)(=O)Cc3ccc(C)cc3)ncc2Cl)s1
9,975,CCS(=O)(=O)c1nc(-c2ccc(Cl)cc2)cc(C(F)(F)F)n1
10,> 1000,Cc1cnc(-c2ccccc2C(C)C)nc1NCc1ccc(-n2ccnn2)cc1
11,563,Cc1ccnc(NC(=O)C2CC(=O)N(c3n[nH]c4cc(Br)ccc34)C2)c1 (stereo not given)
12,866,O=c1ncn2nc(Sc3ccc(F)cc3F)ccc2c1-c1c(Cl)cccc1Cl
13,371,O=C1C2=C(Nc3ccccc3SC2c2ccco2)c2ccccc21 (stereo not given)
14,> 1000,Cc1noc(C)c1-c1ccc2ncnc(NCc3ccc4[nH]ccc4c3)c2c1
15,244,Cc1ccc(S(=O)(=O)Nc2cc(F)ccc2C(=O)Nc2nc(-c3ccccc3)cs2)cc1
16,> 1000,COc1ccc(NC(=O)c2[nH]c(C)cc2C)cc1S(=O)(=O)Nc1ccc(Br)cc1
17,> 1000,COc1cccc(CNCCSc2nnnn2C)c1OCc1ccc(Cl)cc1Cl
18,693,COc1ccccc1-c1csc(N2CCC(C(N)=O)CC2)n1
19,254,NC(=O)C1CCN(c2ncnc(-c3ccc4c(c3)OCCCO4)n2)CC1
20,51.2,Cc1ccc(S(=O)(=O)Nc2cnccc2C(=O)Nc2nc(-c3ccccc3F)cs2)cc1
21,3,O=C(c1cnccn1)N1CCC2(CCCN(C(c3ccccc3)c3ccccc3)C2)CC1
22,5.07,O=C(Nc1cn[nH]c1-c1nc2ccc(CN3CCOCC3)cc2[nH]1)NC1CC1
23,10.1,CC1=C(C(=O)Nc2ccc(Cl)cc2)C(c2ccccc2C)n2ncc(C(=O)Nc3ccc(C)cc3)c2N1 (stereo not given)
24,295,Nc1ncnc(N2CCc3ccccc32)c1[N+](=O)[O-]
25,> 1000,CNc1nc(C#N)c(-c2cccc3ccccc23)o1
26,564,CC(C)(C)NS(=O)(=O)c1ccc(-c2ccc3[nH]nc(N)c3c2)cc1

row,Papp [×10⁻⁶ cm/s],SMILES
1,> 1000,CC(C)c1ccc(OCc2nc3c(n2Cc2ccccc2)C(=O)N(CC2CCOCC2)CCN3)cc1
2,632,COc1cccc(CNc2ccc(S(=O)(=O)Nc3cccnc3)cc2)c1O
3,85.4,O=C(NCCc1nc2ccccc2n1CCO)C1CCCCC1
4,> 1000,COc1ccc(-n2nc(C3CCCN(CC4CCCCC4)C3)[nH]c2=O)cc1 (stereo not given)
5,38.1,COc1ccc(C(=O)NC2CCCc3c2[nH]c2ccccc32)cc1OC (stereo not given)
6,> 1000,CCOc1ccc(CCNC(=O)c2ccc3ccccc3n2)cc1OCC
7,969,Cc1cccc(C)c1Nc1c(-c2cccs2)nc2ncccn12
8,136,NC(=O)C1CCN(c2nc(-c3ccccc3N)cs2)CC1
9,12.1,CN(C)C(=O)c1ccc(-c2cc[nH]c(=O)c2N)cc1
10,836,O=C(NC1CCCc2c1cnn2-c1cccc(O)c1)c1ccccn1 (stereo not given)
11,597,O=C(NCCCn1ccnc1)c1nc(-c2ccccc2)cc2[nH]ccc12
12,> 1000,CCOc1ccc(CCNC(=O)c2ccc(C(=O)c3ccccc3)cc2)cc1OCC
13,40.5,Clc1ccc(C2(c3ccc(-c4cn[nH]c4)cc3)CCNCC2)cc1
14,649,CC1=C[C@@H](CNC(C)C)[C@H](C(C)C)C[C@H]1Cc1nnc(-c2ccncc2)o1
15,34.2,Cc1cccc(-c2noc([C@@H]3Cc4nc[nH]c4CN3C(=O)CC(C)(C)CC(=O)O)n2)c1
16,108,O=C1C(SCCO)=C(SCCO)C(=O)c2ccccc21
17,> 1000,CNC(=O)c1ccccc1Nc1nc(Nc2ccc(N3CCOCC3)cc2OC)ncc1Cl
18,> 1000,COc1cccc(CNc2ccc(C(=O)Nc3nccs3)cc2)c1O
19,1.67,O=C(Cc1ccccc1)Nc1ccc(S(=O)(=O)Nc2nccs2)cc1
20,> 1000,CCc1cccc(NC(=O)c2c(C)oc3nc(C)nc(N4CCCC4)c23)c1
21,7.6,O=C(NC1CCCc2c1[nH]c1ccc(Cl)cc21)c1ccncc1 (stereo not given)
22,51.5,Cc1ccc(S(=O)(=O)Nc2cnccc2C(=O)Nc2nc(-c3ccc(Cl)c(Cl)c3)cs2)cc1
23,47.9,Cc1cnc(NC(=O)c2ccc(-c3cccc([N+](=O)[O-])c3)o2)s1
24,1.5,O=C(Cc1ccc(Cl)c(Cl)c1)Nc1ccc(S(=O)(=O)Nc2nncs2)cc1
25,1.2,O=C1Nc2ccccc2/C1=C/c1cccc(C(=O)O)c1
26,287,CN(C)c1cccc(-c2nccc(N3CCC(C(N)=O)CC3)n2)c1

row,SMILES,Papp [×10⁻⁶ cm/s]
1,CCOc1ccc(CCNC(=O)c2cc3cccnc3n2Cc2cccc(C)n2)cc1OCC,744
2,Cc1cccc(-n2nc(C)c3c2NC(=O)CSC3c2ccccc2Cl)c1 (stereo not given),> 1000
3,CCC(CC)c1cc([C@H]2CN3CC[C@H]2C[C@@H]3CNC(=O)Cc2cccs2)nc(-c2ccncc2)n1,448
4,COc1ccc(C(=O)CCN(C)C)cc1F,410
5,COc1ccc2c(c1)/C(=C/c1cnc[nH]1)C(=O)N2,220
6,C/C=C1/CN2CC[C@@]34c5ccccc5N(C)[C@@H]3[C@@H]2C[C@@H]1[C@H]4C(=O)OC,895
